Assays:
SH-SY5Y cells = experiment: cAMP accumulation assay in morphine-treated SH-SY5Y cells; type: cell-based, human; settings: for cAMP levels: 24 h, SH-SY5Y cells, control not treated with morphine = 100%
Protocol: Culture of SH-SY5Y Cells. SH-SY5Y cells, a well-established stable human neuroblastoma cell line, were purchased from American Type Culture Collection (ATCC, Manassas, Va.) and grown in Dulbecco's modified Eagle's medium (DMEM) with 10% fetal bovine serum, […] penicillin, and 100 μg/ml streptomycin at 37° C. in a 5% CO2 humidified incubator (Fisher). Before experiments, SH-SY5Y cells were treated with 10 μM retinoic acid (RA) for 6 days to induce neuronal differentiation. These differentiated SH-SY5Y cells were then treated with morphine (10 μM) for 24 h unless otherwise specified.
cAMP Accumulation Assay. Levels of cAMP, which is involved in a cellular mechanism of opioid tolerance development, were determined in morphine-treated SH-SY5Y cells. Thirty-six hours after co-culturing with hMSCs or HDFs, SH-SY5Y cells were harvested with a non-enzymatic cell dissociation solution and washed once with HBSS buffer. cAMP accumulation in SH-SY5Y cells was assayed using a LANCE™ cAMP kit (PerkinElmer, Waltham, Mass.) according to the manufacturer's protocol. SH-SY5Y cells were centrifuged at 1000 g for 2 min, resuspended at a concentration of 2×10^6 cells/ml in stimulation buffer (1×HBSS, 5 mM HEPES, 0.1% BSA, 0.5 mM IBMX, pH 7.4) and mixed with 50 μM forskolin. Alexa pluor® 647 labeled antibody was added to the cell suspension and the cells were incubated at 37° C. for additional 15 min, and detection mix was then added to the final cell suspension. The cell sample was further incubated for 1 h in the dark and read on a TECAN instrument (San Jose, Calif.) to measure the LANCE signal. The LANCE signal obtained at […] was directly used to analyze the cAMP levels. The signal at […] was used to identify dispensing or quenching problems. The cAMP standard curve was assayed according to the manufacturer's instructions. The cAMP formation was calculated as the percentage of forskolin-stimulated cAMP accumulation without morphine, which was defined as 100%. All data were expressed as mean±SD. Statistical comparisons were analyzed using Prism software. […]

Sprague-Dawley rats [1] = experiment: Withdrawal thresholds to mechanical stimulation (von Frey) in rats, MSC transplantation and daily morphine; type: in vivo, rat
Protocol: (§1) Animal care and use. The experimental protocols were approved by the Institutional Animal Care and Use Committee of Cleveland Clinic (IACUC #: 2010-0460). Experiments were performed on 24 male Sprague-Dawley rats (250-300 g), purchased from Harlan Laboratories (Indianapolis, Ind.). The animals were housed in group cages (2 per cage), allowed free access to food and water, and maintained on a 12/12 hour light/dark cycle.
(§2) Experimental design. Animals were habituated daily to the experimental environment for 1 week before testing. Pain sensitivity to mechanical or thermal stimuli applied to the hindpaws was determined by the thresholds of withdrawal of the hindlimbs from the stimuli. […] The effects of MSC transplantation or PBS injection on morphine-induced tolerance were evaluated every other day. […]
(§3) Stem cell transplantation. […] Immediately before transplantation, the cells were gently dissociated with 0.25% Trypsin, pelleted by centrifugation, counted by trypan blue exclusion, and suspended in 50 μl of PBS. […]
(§4) Behavioral tests. […] Withdrawal thresholds were quantified as the mechanical pressure in grams applied to the hindpaws through calibrated filaments (von Frey filaments) or the time interval in seconds between the activation of an infrared thermal stimulation and the withdrawal of the limb. […]

Sprague-Dawley rats [2] = experiment: Withdrawal thresholds to thermal stimulation (plantar test) in rats, MSC transplantation and daily morphine; type: in vivo, rat; settings: control group, Day 17 and thereafter, daily morphine, p<0.05
Protocol: as §1, §2, §3, §4

## CN1CC[C@]23c4c5ccc(O)c4O[C@H]2[C@@H](O)C=C[C@H]3[C@H]1C5 [morphine]
SH-SY5Y cells; 1 μM morphine
  cAMP levels: 150.7±20.6 % of control
SH-SY5Y cells; 10 μM morphine
  cAMP levels: 241.6±19.6 % of control
SH-SY5Y cells; 10 μM morphine, at 24 and 48 h vs 0 h, p<0.001 (FIG. 2)
  cAMP levels over time: significant increase of cAMP
Sprague-Dawley rats [1]; control (PBS) group, daily s.c. morphine 7.5 mg/kg, within five days
  withdrawal thresholds to mechanical stimulation (morphine tolerance): gradually and significantly reduced
Sprague-Dawley rats [1]; control group, Day 15, 4 days after start of daily morphine injections, t=15.639, p<0.001
  mean mechanical withdrawal thresholds vs pre-morphine value at day 11: dramatically decreased
Sprague-Dawley rats [2]
  withdrawal thresholds to thermal stimulation vs pre-morphine values at day 11: significantly reduced

Reference: US20150246074A1, “METHODS OF A[…] TOLERANCE” (The Board of Trustees of the University of Illinois, priority 2014, published 2015)
